Laboratory results: PubChem BioAssay (NCI)
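Cells were grown in 96-well plates and exposed to each compound for 48 hours at five concentrations; endpoints were interpolated linearly between bracketing concentrations, or set to the highest concentration if not reached. GI50 = concentration required for 50% inhibition of growth. TGI: concentration producing complete growth inhibition.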

Experiments:
Test in all cases: growth of human tumour cells (NCI), 48 h
[1] = system: CCRF-CEM leukemia
[2] = system: HCT-116 colon
[3] = system: MDA-MB-231 breast
[4] = system: NCI-H23 lung
[5] = system: NCI-H460 lung
[6] = system: RXF 393 renal
[7] = system: SF-268 CNS
[8] = system: SF-295 CNS
[9] = system: SNB-75 CNS
[10] = system: SR leukemia

Row | SMILES | GI50 [1] [µM] | TGI [1] [µM] | GI50 [2] [µM] | TGI [2] [µM] | GI50 [3] [µM] | TGI [3] [µM] | GI50 [4] [µM] | TGI [4] [µM] | GI50 [5] [µM] | TGI [5] [µM] | GI50 [6] [µM] | TGI [6] [µM] | GI50 [7] [µM] | TGI [7] [µM] | GI50 [8] [µM] | TGI [8] [µM] | GI50 [9] [µM] | TGI [9] [µM] | GI50 [10] [µM] | TGI [10] [µM]
1 | N#Cc1nc2c(S(=O)(=O)c3ccccc3)c(N)n(Cc3cccnc3)c2nc1C#N | 3.86 | > 100 | 9.13 | > 100 | 11.8 | 52.2 | 40 | > 100 | > 100 | > 100 | 2.47 | 9.1 | 4.26 | 22.7 | 20.5 | 50.7 | 3.35 | 20.2 | 8.59 | > 100
2 | COc1ccc(/C=C\c2cc(OC)c(OC)c(OC)c2)cc1OC(=O)c1cccc(Cn2cc(CCOC(=O)[C@H](N)Cc3cn(C)c4ccccc34)nn2)c1 | < 0.01 | > 100 | < 0.01 | 38.7 | < 0.01 | > 51.9 | < 0.01 | 63.7 | < 0.01 | > 42.8 | < 0.01 | 12.9 | 0.0296 | > 100 | 0.0295 | 12.5 | < 0.01 | 0.0293 | < 0.01 | 2.66
3 | Nc1ncnc2c1nc(Cl)n2C1OC2COP(=O)(O)OC2C1O (stereo not drawn) |  | > 300 |  | > 300 |  | > 300 |  | > 300 |  | > 300 |  | > 300 |  | > 300 |  | > 300 |  | > 213 |  | > 300
4 | O=C1NC(O)C(c2c[nH]c3ccccc23)=C1c1c[nH]c2ccccc12 (stereo not drawn) | > 25 | > 25 | > 25 | > 25 | > 16.5 | > 25 | > 25 | > 25 | > 25 | > 25 | > 25 | > 25 | > 25 | > 25 | > 25 | > 25 | > 25 | > 25 | > 23.7 | > 25
5 | Cc1cc2nc3c4cc(N)ccc4n(CCN(C)C)c3nc2cc1C | 0.891 | 17.6 | 0.365 | 10.9 | 1.12 | 7.61 | 0.981 | 3.73 | 0.402 | 2.95 | 0.912 | 2.72 | 1.43 | 6.89 | 0.705 | 4.03 | 1.16 | 6.82 | 0.285 | 7.29
6 | COc1cc(-c2nn(-c3cccc(NC(=O)Nc4cc(C(F)(F)F)cc(C(F)(F)F)c4)c3)cc2-c2ccncc2)ccc1Cl | 0.498 | 2.79 | 0.442 | 2.44 | 0.675 | 1.43 | 0.59 | 3.94 | 0.366 | 1.64 | 0.841 | 2.15 | 0.896 | 2.3 | 0.241 | 0.921 | 0.961 | 2.74 | 0.8 | 2.99
7 | O=C(Nc1cc(Cl)cc(Cl)c1)c1ccc(NC2=C(Cl)C(=O)N(Cc3ccc(Cl)cc3Cl)C2=O)cc1 | 0.22 | 0.819 | 4.06 | 16.9 | 19.6 | 41.8 | 3.71 | 19.2 | 16.6 | > 100 | 29.6 | > 100 | 8.87 | 39.4 | 43.2 | > 100 | 68 | > 100 | 0.0622 | 0.238
8 | COC(=O)C1=C(C(=O)ON)C2C=CC1(C(Cc1ccccc1)Nc1ccccc1)O2 (stereo not drawn) | 2.23 | 16.9 | 1.77 | 3.24 | 1.87 | 3.59 | 12 | 28.1 | 18 | 40.7 | 1.78 | 3.2 | 10.5 | 23 | 13.8 | 26.7 | 8.9 | 21.2 | 2.67 | 43.6
9 | CC(C)[C@H](CO)Nc1nc(Nc2ccc(C(=O)NCCNS(=O)(=O)c3cccc4c(N(C)C)cccc34)c(Cl)c2)c2ncn(C(C)C)c2n1 | 3.01 | > 100 | 2.57 | > 100 | 1.58 | 9.16 | 3 | > 36.2 | 3.45 | > 100 | 0.381 | 1.78 | 2.47 | 34.2 | 1.75 | > 100 | 1.75 | > 100 | 1.87 | > 24.9
10 | CCCc1cc2c(=O)c(C(=O)OC)c[nH]c2cc1N(CC)CC | 85.8 | > 100 | 21.5 | 59.1 | 30.5 | 84.5 | 44.5 | > 100 | 31.6 | > 100 | 31.4 | 85 | 28.6 | 87.6 | 8.16 | 24.8 | 18.6 | 46.3 | 39.3 | > 100
11 | CCOc1ccc(-c2nonc2NC(=O)c2cccc(C)c2)cc1OCC | > 100 | > 100 | 35.7 | > 100 | 19.5 | 62.5 | 35.8 | > 100 | > 100 | > 100 | > 100 | > 100 | 90.5 | > 100 | 30.4 | > 100 | 14.5 | 52.3 | > 100 | > 100
12 | COc1ccc(/C=C/C(=O)c2ccc(SC)cc2)cc1OC | 5.26 | 82.1 | 2.65 | 10.1 | 9.05 | 33.7 | 2.82 | 10.4 | 70.6 | > 100 | 12.7 | 29.4 | 22.3 | 63.8 | 6.47 | 40.2 | 17 | 37.2 | 3.06 | 42.9
13 | Nc1c(Br)cc(Br)c2c1[nH]c(=O)c1ccccc12 | 14 | > 81.8 | 3.98 | 20.2 | 2.36 | 61.1 | 20.7 | > 100 | 3.33 | 14.6 | 4.7 | 22.1 | 9.72 | > 69.3 | 3.1 | 10.2 | 1.36 | 3.77 | 2.39 | 5.91
14 | CC(C)(C)c1nn(-c2ccccc2)c2c1C(=O)CSC(c1ccccc1Cl)N2 (stereo not drawn) | 2.48 | 13.5 | 1.9 | 12 | 3.57 | 16 | 2.39 | 17.9 | 2.8 | 12.4 | 0.545 | 3.11 | 2.76 | 18.5 | 0.746 | 10.5 | 2.2 | 13.9 | 0.413 | 9.89
15 | O=c1c2ccccc2n(C[C@H]2CO2)c2ccccc12 | 0.771 | 21.7 | 1.12 | 8.78 | 2.07 | 5.24 | 1.42 | 4.52 | 1.7 | 4.43 | 1.39 | 2.82 | 1.62 | 5.97 | 2.91 | 9.44 | 1.52 | 3.46 | 0.302 | 4.37
16 | C/C(=N/Nc1nc2ccccc2n1C)c1ccccn1 | 0.0252 |  |  | 14.8 | 0.0561 | 15.3 | 0.0443 | 19.3 | 0.133 | 1.95 | 0.169 | 3.24 | 0.202 | > 35.6 | 0.28 | 4.97 | 0.246 | 8.86 | 0.047 | > 89.7
17 | Ic1ccccc1-c1ccccc1 | 41.5 | > 100 | 94.9 | > 100 | > 100 | > 100 | > 100 | > 100 | > 100 | > 100 | 89.1 | > 100 | > 100 | > 100 | > 100 | > 100 | > 100 | > 100 | 18.3 | > 100
18 | CC1=C2C[C@H]3[C@@H](CC[C@@H]4CC(NS(C)(=O)=O)CC[C@@]43C)[C@@H]2CC[C@@]2(C1)O[C@@H]1C[C@H](C)CN[C@H]1[C@H]2C (stereo partly drawn) | 7.71 | 28.4 | 4.77 | 18.4 | 5.68 | 18.8 | 16.3 | 33.2 | 4.81 | 16 | 3.65 | 15.6 | 12.1 | 26.6 | 12.5 | 26.1 | 3.07 | 15.9 | 3.38 | 12
19 | CC(C)(O)CS(=O)(=O)Nc1ccc2c(c1)CCN(C(=O)COc1cccnc1)C2 | 1.02 | > 100 | 0.0311 | > 100 | > 100 | > 100 | > 100 | > 100 | 11.5 | > 100 | > 100 | > 100 | > 100 | > 100 | > 61.6 | > 100 | > 100 | > 100 | > 45.7 | > 100
20 | O=C1/C(=C/c2ccccc2)CN(C(=O)c2cccnc2)C/C1=C\c1ccccc1 | 0.558 | 6.05 | 0.319 | 0.88 | 1.92 | 4.83 | 1.83 | 5.19 | 2.58 | 11 | 1.72 | 3.3 | 2.78 | 13.7 | 1.79 | 4.23 | 5.48 | 26.7 | 0.311 | 1.35
